Assay results reported in paper PMC3433420 (PLoS ONE, 2012).
Residues, ends and D or L forms follow the SMILES beside them.

Legend:
RASA1-N SH2 domain = molecular target: T1, RASA1-N SH2 domain (Homo sapiens, UniProt P20936); assay: FP saturation binding assay
T1 sequence (P20936 181-272 limits assumed): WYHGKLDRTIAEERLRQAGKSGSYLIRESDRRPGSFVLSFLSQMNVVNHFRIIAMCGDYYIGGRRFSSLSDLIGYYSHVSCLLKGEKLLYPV

[1] = molecular target: T2, PIK3R3-NC tandem SH2 domains (Homo sapiens, UniProt Q92569); assay: FP saturation binding assay; conditions: Protein PIK3R3-NC; FP saturation binding, high-confidence ErbB interactions; mean over replicate hits
T2 construct: the tandem protein was included in our analysis with all internal amino acids linking the domains; 6X His; thioredoxin; made in house; host or cells: E. coli BL21(DE3)pLysS
How it was run: (§1)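 Rhodamine-labeled phosphopeptides (10 nM final) titrated with SH2 domain protein (0.002–10 µM, 12 points) in 20 mM HEPES, 100 mM KCl, 0.1% Tween-20, 5 mM DTT, pH 7.8; 20 min, room temperature, dark. FP read at 530/555 nm; KD fitted by nonlinear regression after thioredoxin background correction and outlier removal.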

PIK3R2-N SH2 domain = PIK3R2-N SH2 domain (Homo sapiens, UniProt O00459); assay: FP saturation binding assay
[2] = molecular target: PIK3R2-NC tandem SH2 domains (Homo sapiens, UniProt O00459); assay: FP saturation binding assay
[3] = molecular target: T3, RASA1-NC tandem SH2 domains (Homo sapiens, UniProt P20936); assay: FP saturation binding assay; conditions: Protein RASA1-NC; FP saturation binding, high-confidence ErbB interactions; mean over replicate hits
T3 construct: the tandem protein was included in our analysis with all internal amino acids linking the domains; 6X His; thioredoxin; made in house; host or cells: E. coli BL21(DE3)pLysS
T3 sequence (P20936 181-441 limits assumed): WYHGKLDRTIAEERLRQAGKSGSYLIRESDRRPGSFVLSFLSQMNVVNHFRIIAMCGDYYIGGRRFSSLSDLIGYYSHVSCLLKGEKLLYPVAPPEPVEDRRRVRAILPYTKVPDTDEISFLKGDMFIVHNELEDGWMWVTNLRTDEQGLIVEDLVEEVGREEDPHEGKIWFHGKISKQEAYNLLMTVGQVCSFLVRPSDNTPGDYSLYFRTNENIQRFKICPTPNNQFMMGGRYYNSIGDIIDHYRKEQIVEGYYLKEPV
How it was run: as §1

LCK SH2 domain = molecular target: T4, LCK SH2 domain (Homo sapiens, UniProt P06239); assay: FP saturation binding assay; conditions: Protein LCK; FP saturation binding, high-confidence ErbB interactions; mean over replicate hits
T4 construct: 93 SH2 and 2 PTB domain-containing constructs; 6X His; thioredoxin; made in house; host or cells: E. coli BL21(DE3)pLysS
How it was run: as §1

YES1 SH2 domain = molecular target: T5, YES1 SH2 domain (Homo sapiens, UniProt P07947); assay: FP saturation binding assay; conditions: Protein YES1; FP saturation binding, high-confidence ErbB interactions; mean over replicate hits
T5 construct: 6X His; thioredoxin; made in house; host or cells: BL21(DE3)pLysS E. coli
How it was run: as §1

PTPN11-N SH2 domain = molecular target: T6, PTPN11-N SH2 domain (Homo sapiens, UniProt Q06124); assay: FP saturation binding assay
T6 sequence (Q06124 6-102 limits assumed): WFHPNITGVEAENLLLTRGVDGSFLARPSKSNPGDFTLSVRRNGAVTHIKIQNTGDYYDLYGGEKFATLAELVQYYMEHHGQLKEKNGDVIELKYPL

SH2D1B SH2 domain = molecular target: T7, SH2D1B SH2 domain (Homo sapiens, UniProt O14796); assay: FP saturation binding assay
T7 sequence (O14796 5-101 limits assumed): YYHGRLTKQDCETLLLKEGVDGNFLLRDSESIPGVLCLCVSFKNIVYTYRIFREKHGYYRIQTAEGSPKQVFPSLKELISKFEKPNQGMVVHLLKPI

PTK6 SH2 domain = molecular target: T8, PTK6 SH2 domain (Homo sapiens, UniProt Q13882); assay: FP saturation binding assay; conditions: Protein PTK6; FP saturation binding, high-confidence ErbB interactions; mean over replicate hits
T8 construct: from the PTK6 SH2 domain; 6X His; thioredoxin; made in house; host or cells: E. coli BL21(DE3)pLysS
How it was run: as §1

PIK3R3-N SH2 domain = molecular target: T9, PIK3R3-N SH2 domain (Homo sapiens, UniProt Q92569); assay: FP saturation binding assay; conditions: Protein PIK3R3-N; FP saturation binding, high-confidence ErbB interactions; mean over replicate hits
T9 construct: 6X His; thioredoxin; made in house; host or cells: E. coli BL21(DE3)pLysS
How it was run: as §1

PIK3R1-C SH2 domain = molecular target: T10, PIK3R1-C SH2 domain (Homo sapiens, UniProt P27986); assay: FP saturation binding assay; conditions: protein PIK3R1-C, high-confidence ErbB interactions, mean of replicate hits
T10 construct: 6X His; thioredoxin; made in house; host or cells: E. coli BL21(DE3)pLysS
How it was run: as §1

GRB7 SH2 domain = GRB7 SH2 domain (Homo sapiens, UniProt Q14451); assay: FP saturation binding assay; conditions: Mean KD (μM), protein GRB7; FP, high-confidence ErbB interactions; mean of replicate hits
PIK3R1-N SH2 domain = molecular target: T11, PIK3R1-N SH2 domain (Homo sapiens, UniProt P27986); assay: biochemical; type: binding; conditions: protein PIK3R1-N; FP, high-confidence ErbB interactions; mean of replicate hits
T11 construct: thioredoxin; made in house; host or cells: E. coli BL21(DE3)pLysS
T11 sequence (P27986 333-428 limits assumed): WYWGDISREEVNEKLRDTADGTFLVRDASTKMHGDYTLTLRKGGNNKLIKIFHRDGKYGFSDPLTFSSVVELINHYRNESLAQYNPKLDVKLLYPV

Sequence of PIK3R2-NC tandem SH2 domains (O00459 330-716 limits assumed): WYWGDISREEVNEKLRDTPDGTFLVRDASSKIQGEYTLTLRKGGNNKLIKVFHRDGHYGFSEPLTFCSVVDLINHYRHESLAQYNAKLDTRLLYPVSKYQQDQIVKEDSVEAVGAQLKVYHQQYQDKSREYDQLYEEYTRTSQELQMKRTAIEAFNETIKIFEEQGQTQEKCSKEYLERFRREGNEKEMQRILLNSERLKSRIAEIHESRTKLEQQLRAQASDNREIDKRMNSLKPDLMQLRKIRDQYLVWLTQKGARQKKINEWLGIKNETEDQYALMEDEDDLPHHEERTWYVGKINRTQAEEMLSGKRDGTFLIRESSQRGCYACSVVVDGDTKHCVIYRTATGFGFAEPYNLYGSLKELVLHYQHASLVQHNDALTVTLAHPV
Sequence of PIK3R2-N SH2 domain (O00459 330-425 limits assumed): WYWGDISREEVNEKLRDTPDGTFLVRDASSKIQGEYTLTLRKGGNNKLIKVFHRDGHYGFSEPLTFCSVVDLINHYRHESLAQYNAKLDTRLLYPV
T5 sequence (P07947 158-255 limits assumed): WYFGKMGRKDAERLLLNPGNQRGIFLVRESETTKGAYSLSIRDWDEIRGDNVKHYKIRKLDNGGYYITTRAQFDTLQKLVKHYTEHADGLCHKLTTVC
T10 sequence (P27986 624-718 limits assumed): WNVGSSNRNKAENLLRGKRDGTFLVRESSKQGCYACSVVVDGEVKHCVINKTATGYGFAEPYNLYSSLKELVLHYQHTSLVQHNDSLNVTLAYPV
T8 sequence (Q13882 78-170 limits assumed): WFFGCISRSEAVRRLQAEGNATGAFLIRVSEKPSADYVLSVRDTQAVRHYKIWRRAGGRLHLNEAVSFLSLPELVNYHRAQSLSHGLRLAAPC
Sequence of GRB7 SH2 domain (Q14451 431-527 limits assumed): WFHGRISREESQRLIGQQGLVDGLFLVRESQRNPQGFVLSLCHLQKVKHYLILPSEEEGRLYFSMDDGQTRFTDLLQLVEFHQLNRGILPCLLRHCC
T4 sequence (P06239 127-224 limits assumed): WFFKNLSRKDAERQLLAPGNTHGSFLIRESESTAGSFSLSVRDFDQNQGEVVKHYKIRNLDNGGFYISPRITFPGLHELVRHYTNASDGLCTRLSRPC

Q: With CSCC[C@H](NC(=O)[C@@H](NC(=O)[C@H](Cc1ccc(OP(=O)(O)O)cc1)NC(=O)[C@H](C)NC(=O)[C@H](CCC(=O)O)NC(=O)[C@H](CC(=O)O)NC(=O)[C@@H](N)CC(C)C)C(C)C)C(=O)N[C@@H](C)C(=O)N[C@@H](CO)C(=O)N[C@H](C(=O)N[C@@H](CC(=O)O)C(=O)N[C@@H](CC(N)=O)C(=O)N[C@@H](CC(=O)O)C(=O)O)C(C)C [ErbB1 764 13-mer] (HELM PEPTIDE1{L.D.E.A.[O=C([C@H](Cc1ccc(OP(=O)(O)O)cc1)N[*:1])[*:2]].V.M.A.S.V.D.N.D}$$$$V2.0) as the molecule, how does the Kd (RASA1-N SH2 domain) read?
A: 9.7 µM

Q: What about the Kd [1] of the same molecule?
A: 1.91 µM

Q: What about the Kd (PIK3R2-N SH2 domain) of the same molecule?
A: 2.36 µM

Q: And the Kd [2]?
A: 3.07 µM

Q: With CSCC[C@H](NC(=O)[C@H](CC(C)C)NC(=O)[C@H](C)NC(=O)[C@H](CCCNC(=N)N)NC(=O)[C@H](Cc1ccc(OP(=O)(O)O)cc1)NC(=O)[C@H](Cc1ccccc1)NC(=O)[C@H](CC(N)=O)NC(=O)[C@H](CO)NC(=O)[C@@H](N)CC(=O)O)C(=O)N[C@@H](CC(=O)O)C(=O)N[C@@H](CCC(=O)O)C(=O)N[C@@H](CCC(=O)O)C(=O)N[C@@H](CC(=O)O)C(=O)O [ErbB1 998 13-mer] (HELM PEPTIDE1{D.S.N.F.[O=C([C@H](Cc1ccc(OP(=O)(O)O)cc1)N[*:1])[*:2]].R.A.L.M.D.E.E.D}$$$$V2.0) as the molecule, how does the Kd (RASA1-N SH2 domain) read?
A: 2.85 µM

Q: And the Kd [3]?
A: 12.6 µM

Q: And the Kd (LCK SH2 domain)?
A: 5.79 µM

Q: What about the Kd (YES1 SH2 domain) of the same molecule?
A: 7.05 µM

Q: And the Kd (PTPN11-N SH2 domain)?
A: 13.1 µM

Q: What about the Kd (SH2D1B SH2 domain) of the same molecule?
A: 3.98 µM

Q: Which Kd (RASA1-N SH2 domain) does the source give for CC[C@H](C)[C@H](NC(=O)[C@H](CC(C)C)NC(=O)[C@H](Cc1ccc(OP(=O)(O)O)cc1)NC(=O)[C@H](CCC(=O)O)NC(=O)[C@H](CC(=O)O)NC(=O)[C@H](C)NC(=O)[C@@H](N)CC(=O)O)C(=O)N1CCC[C@H]1C(=O)N[C@@H](CCC(N)=O)C(=O)N[C@@H](CCC(N)=O)C(=O)NCC(=O)N[C@@H](Cc1ccccc1)C(=O)N[C@@H](CC(=O)O)C(=O)O [ErbB1 1016 13-mer] here?
A: 1.67 µM

Q: What about the Kd [3] of the same molecule?
A: 1.1 µM

Q: What about the Kd (PTK6 SH2 domain) of the same molecule?
A: 3.04 µM

Q: What about the Kd (PIK3R3-N SH2 domain) of the same molecule?
A: 3.21 µM

Q: What about the Kd (PIK3R2-N SH2 domain) of the same molecule?
A: 2.48 µM

Q: And the Kd [2]?
A: 2.43 µM

Q: What does the source list for CSCC[C@H](NC(=O)[C@H](Cc1ccc(O)cc1)NC(=O)[C@H](CCC(=O)O)NC(=O)[C@H](Cc1ccc(OP(=O)(O)O)cc1)NC(=O)[C@H](CC(=O)O)NC(=O)[C@H](CCC(=O)O)NC(=O)[C@H](CC(=O)O)NC(=O)[C@@H]1CCCN1)C(=O)N[C@@H](CC(N)=O)C(=O)N[C@@H](CCCNC(=N)N)C(=O)N[C@@H](CCC(N)=O)C(=O)N[C@@H](CCCNC(=N)N)C(=O)N[C@@H](CC(=O)O)C(=O)O [ErbB3 1260 13-mer] (HELM PEPTIDE1{P.D.E.D.[O=C([C@H](Cc1ccc(OP(=O)(O)O)cc1)N[*:1])[*:2]].E.Y.M.N.R.Q.R.D}$$$$V2.0)?
A: Kd (PIK3R1-C SH2 domain): 0.47 µM; Kd (GRB7 SH2 domain): 0.1 µM; Kd (PIK3R1-N SH2 domain): 0.48 µM
